Experimental data: patent US20100034874A1, “LIPOSOME ENCAPSULATING AMMINE-PLATINUM COMPLEX AT HIGH CONCENTRATION, AND METHOD FOR PRODUCTION OF THE LIPOSOME” (KATAYAMA CHEMICAL INDUSTRIES CO., LTD., priority 2006, published 2010)

Columns and labels:
[1] = tested on: Ehrlich ascites cancer cells (EAT cells) tumor; test: Accumulation at cancerous site: platinum content in removed tumor by FAAS; assay type: in vivo, mouse (Balb/c); settings: 1.7 mg/kg body weight, caudal vein, n=1
Protocol: 1×10^6 Ehrlich ascites cancer cells (EAT cells) (ATCC Number: CCl^−77TME (Ehrlich-Letter ascites)) were transplanted subcutaneously into the right femoral region of a 6-week old mouse (Balb/c, female) (n=1) and the following test was performed after 10 days. A cis-diamine dichloroplatinum (II)-containing sialyl Lewis X-modified liposome and a control of pure cis-diamine dichloroplatinum (II) were administered respectively into the caudal vein of a mouse in an amount of 150 μl, i.e. 1.7 mg/kg body weight (226 μg/ml). The resulting tumor was removed, 48 and 96 hours after administration. 0.1 g of the removed tumor tissue (0.2 to 1.0 g) was added to 1 ml of conc. nitric acid, and the mixture was agitated for 5 minutes. After static storage for 1 hour, the mixture was heated at […] in a water bath and then cooled to room temperature. 300 μl of distilled water was added to 100 μl of the nitric 5 acid-treated solution. The content of platinum therein was determined by flameless atomic absorption spectroscopy (FAAS: AA-6700 Atomic absorption flame emission spectrophotometer SIMAZU), and the platinum contents in 1 g of tumor were compared between the sample and the control. […]

[2] = tested on: Ehrlich ascites cancer cells (EAT cells); test: Tumor proliferation-inhibiting activity (tumor volume); assay type: in vivo, mouse (Balb/c); settings: 1.5 mg/kg caudal vein on days 5, 12, 19, n=3
Protocol: 1×10^6 Ehrlich ascites cancer cells (EAT cells) (ATCC Number: CCl^−77TME (Ehrlich-Letter ascites)) were transplanted subcutaneously into right femoral region of 6-week old mice (Balb/c, female) (n=3), and the following tests were performed after 10 days. The cis-diamine dichloroplatinum (II)-containing sialyl Lewis X-modified liposome and the anti-E-selectin antibody-modified liposome were administered into the caudal vein of a mouse respectively in an amount of 1.5 mg/kg (200 μg/ml) on the 5th, 12th, and 19th days after transplantation. As a control, cis-diamine dichloroplatinum (II) was dissolved in physiological saline to a concentration of 200 μg/ml. The dissolved solution was administered similarly.
The size, length (A mm) and diameter (B mm), of the tumor was determined by using a digital vernier caliper (Mitsutoyo CD-S15C) on the 12th, 19th, and 29th days after tumor transplantation. The volume of the tumor (mm^3) was calculated by the following Formula: (A×B^2)×0.4.

[3] = tested on: Ehrlich ascites cancer cells (EAT cells); test: Cell proliferation-inhibiting activity (MTT assay, WST-8 reagent); assay type: cell-based; settings: 48 hours, no sample 0.480, n=3
Protocol: Ehrlich ascites cancer cells (EAT cells) (ATCC Number: CCl^−77TME (Ehrlich-Letter ascites)) were inoculated at 1×10^3 cell/100 μl/well (Falcon3072), and a sample was added after culture for 24 hours. The samples were prepared by diluting the cis-diamine dichloroplatinum (II)-containing unmodified liposome, the cis-diamine dichloroplatinum (II)-containing sialyl Lewis X liposome, and the cis-diamine dichloroplatinum (II)-containing anti-E-selectin antibody-modified liposome, with DMEM buffer solution (Dulbeccos's Ham Modified Eagle liquid medium, low glucose SIGMA D6046)/10% FBS (fetal calf serum SIGMA F0926)/penicillin 100 unit/ml-streptomycin 100 μg/ml (antibiotic antimycotic solution, stabilized SIGMA A5955)) to a cis-diamine dichloroplatinum (II) amount of 10 μg/ml. […] The cell count, 48 hours after addition was determined by the MTT assay of using the formazan amount as an indicator.
In addition, a solution containing only added DMEM/10% FBS was analyzed by the MTT assay as a control containing no sample.
A cell count-measuring reagent WST-8 (Kishida Chemical) was added to each well in an amount of 20 μl, and the absorbance thereof at 450 nm was determined after 2 hours. The absorbance was determined by using GE Healthcare Ultrospec-6300. […]

Solubility in water = assay type: physicochemical
Protocol: For example, in the case of cisplatin, the solubility of cisplatin in water is 2 mg/ml (room temperature). The solubility of cisplatin nitrate is 20 mg/ml. Namely, cisplatin can be used as a platinum complex in an amount of not less than its solubility (room temperature). Ionic species forming a water-soluble or a poorly water-soluble salt with the platinum complex such as cisplatin are known in the art or can be selected properly, and thus, even if the platinum complex is that other than cisplatin, it is possible to select a platinum complex properly by considering its solubility, similarly to cisplatin. In this case, it is possible to form nitrates similarly, by adjusting the equivalent amount of silver nitrate added. In addition, concentrations of a bromide ion and an iodide ion are the same as the concentration of a chloride ion respectively; therefore, with any of these ions, the present invention can be carried out without problems. This is because the bromide ion or the iodide ion, which are higher in binding property than the chloride ion, can form a poorly water-soluble substance similarly, even when the present invention is carried out under the same conditions. Since it is believed that there is no difference in liposomal membrane permeability of each ion, the present invention can be carried out by taking these elements into consideration similarly.

[4] = Conversion of cis-diamine dinitratoplatinum (II) to cis-diamine dichloroplatinum (II) in 150 mM sodium chloride (UV absorption spectrum); assay type: physicochemical
Protocol: Five mg/ml of cis-diamine dinitratoplatinum (II) was dissolved in a TAPS buffer solution containing 150 mM of sodium chloride (pH: 8.4); the solution was stationarily placed at 25° C.; and the UV spectrum of the solution was determined over time (0 minute, 5 minutes, 10 minutes, 15 minutes, 30 minutes and 45 minutes). One mg of cis-diamine dichloroplatinum (II) was dissolved in 1 ml of sodium chloride-containing TAPS buffer solution, to give a control, and the UV spectrum thereof was obtained. […] There was no change in UV spectrum, when the sample was stored without movement for 45 minutes or more. […] This probably occurs because the presence of NaCl leads to the conversion of cis-diamine dinitratoplatinum (II) to the hardly water-soluble cis-diamine dichloroplatinum (II) and the subsequent precipitation of the latter.
Replacement of the nitrate ion of cis-diammine dinitratoplatinum (II) with the chloride ion in the 150 mM sodium chloride solution was studied by absorption spectroscopic method (Comparative Example 1 and FIGS. 4A and 4B).

[5] = cited from earlier work

## N.N.[Cl][Pt][Cl] [Cisplatin, cis-diammine dichloroplatinum (II)]
[1]; 48 hours after administration
  Platinum concentration (ng/g tissue) in tumor: 361 ng/g tissue
[1]; 96 hours after administration
  Platinum concentration (ng/g tissue) in tumor: 49 ng/g tissue
[2]; Day 12 after tumor transplantation
  Average tumor volume: 63 mm^3
[2]; Day 19 after tumor transplantation
  Average tumor volume: 63 mm^3
[2]; Day 29 after tumor transplantation
  Average tumor volume: 501 mm^3
[3]; sample final concentration 8.30 μM
  Average absorbance (450 nm): 0.045
[3]; sample final concentration 16.60 μM
  Average absorbance (450 nm): 0.027

## [NH2][Pt]([NH2])([O][N+](=O)[O-])[O][N+](=O)[O-] [CDDP-3, cis-diammine dinitratoplatinum (II)]
Solubility in water
  solubility in water relative to cis-diamine dichloroplatinum (II): approximately 10 times
[4]; TAPS containing 150 mM NaCl, pH 8.4, 25° C., 5 mg/ml
  time for conversion to cis-diamine dichloroplatinum (II): 45 min
[4]; in the presence of 150 mM sodium chloride
  fraction converted to cis-diamine dichloroplatinum (II): ≥ 99%
[5]
  solubility of cisplatin nitrate: 20 mg/mL
